In patent US8242152B2, “Use of 4-[(4-thiazolyl)phenoxy]alkoxy-benzamidine derivatives for the prophylaxis and treatment of osteoporosis” (Dong Wha Pharmaceutical Co., Ltd., priority 2001, dated 2012):

Key:
rabbit osteoclasts = assay: TRAP(+) MNC formation in isolated rabbit osteoclast cultures, single treatment without LTB4 (Example 6); type: cell-based; settings: for number of TRAP(+) MNCs / osteoclast formation: 1000 nM, single treatment without LTB4, dentine slices, 48 hrs (FIG. 3-8)
Description: (§1) Rabbit osteoclasts were isolated as described by Victoria Tai's report (Doctoral Dissertation, 1997, Graduate Department of Pharmacology, University of Toronto) and Rraser P. Coxon et al. (Methods in Molecular Medicine, vol 80). Neonatal rabbits (New Zealand White) were sacrificed by ether-inhaling method under a hood. The removed long bones were dissected free of attached soft tissues and placed into ice-cold PBS. The long bones were cut longitudinally and mechanically curetted in 10 ml medium 199 with antibiotics (10 ug/ml penicillin G and 50 ug/ml gentamycin) in a glass Petri dish. Each bone was curetted with a scalpel blade and was finely minced. The fragments were then vigorously agitated by pipetting up and down using a pasteur pipette and vortex-mixed for 30 seconds. The fragments were allowed to settle and the cell suspension was then transferred to a 50 ml tube and the previous step repeated three times to a total volume of 40 ml. The bone fragments were allowed to settle (>1 min). The cell suspension was then transferred to a new 50 ml tube, passed through a 40 um cell strainer and centrifuged at 200 g for 8 minutes. The supernatant was removed and the pellet was immediately resuspended in α-MEM with 2% FBS (bicarbonate buffered medium).
(§2) 40 uL droplets of osteoclast-containing suspensions were plated onto 60 mm tissue culture plastic dishes or on dentine slices in 96-well microtiter plates in 2% medium. The cells were allowed ninety minutes for attachment before the addition of 2 mL α-MEM with 2% FBS. After 24 hr culture, cells were washed to remove non-adherent cells and replaced with fresh medium as describes below.
After 24 hr in culture, the medium was replaced with fresh medium containing control, LTB4 receptor antagonists (1000 nM), DW1350 (10, 100 and 1000 nM) or LTB4 (100 nM) and the cultures were continued for an additional 48 hrs.
(§3) All cells were cultured at 37° C. in a humidified atmosphere of 95% air and 5% CO2 in bicarbonate buffered medium at pH 7.4.
(§4) Differentiated osteoclasts are multinucleated cells and have specific enzyme activity, such as ‘tartrate-resistant acid phosphatase (TRAP)’. Therefore, Osteoclast formation was determined by counting the number of TRAP-positive multinucleated cells (TRAP(+) MNCs).
(§5) After culture, the cells were fixed with 10% neutral buffered formalin for 30 min at 4° C., washed twice in distilled water and stained for TRAP activity by incubating with substrate. The number of TRAP(+)MNC with more than 2 nuclei was counted under photomicroscope.
(§6) Results were expressed as mean number of TRAP(+)MNC±SD of All experiments were done at least twice. Statistical analysis was performed for each experiment by student t-test.

[1] = test system: LTB4-induced osteoclast formation; assay: LTB4-induced osteoclast formation in rabbit osteoclast cultures, co-treatment and pre-treatment (Example 6); type: cell-based
Description: as §1, §2
After 24 hr in culture, the medium was removed and replaced with fresh medium containing both LTB4 receptor antagonist (1000 nM) and LTB4 (100 nM) or both DW1350 (1000 nM) and LTB4 (100 nM). The cultures were continued for an additional 48 hrs.
After 6 hrs in culture, the medium was removed and cells were pretreated with LTB4 receptor antagonists such as LY292728 (Journal of Medical Chemistry, 1995, vol. 38, No. 10, p 4411-4432), SB209247 (Journal of Medical Chemistry, 1996, vol. 39, No. 19, p 3837-3841), LY293111(Journal of Medical Chemistry, 1995, vol. 38, No. 10, p 4411-4432) and LY223982 (Journal of Medical Chemistry, 1993, vol. 36, p 3333-3340) or DW1350-containing medium and culture continued for 18 hrs. The medium was replaced with medium containing both LTB4 receptor antagonist and LTB4 or DW1350 and LTB4. The cultures were continued for an additional 48 hrs.
as §3, §4, §5, §6

LTB4 receptor = LTB4 receptor (Homo sapiens, UniProt Q15722); settings: cited from earlier work
[2] = 1000 nM in the presence of 100 nM LTB4 (FIGS. 6˜8), regimen not separated

Sequence of LTB4 receptor (Q15722 whole entry): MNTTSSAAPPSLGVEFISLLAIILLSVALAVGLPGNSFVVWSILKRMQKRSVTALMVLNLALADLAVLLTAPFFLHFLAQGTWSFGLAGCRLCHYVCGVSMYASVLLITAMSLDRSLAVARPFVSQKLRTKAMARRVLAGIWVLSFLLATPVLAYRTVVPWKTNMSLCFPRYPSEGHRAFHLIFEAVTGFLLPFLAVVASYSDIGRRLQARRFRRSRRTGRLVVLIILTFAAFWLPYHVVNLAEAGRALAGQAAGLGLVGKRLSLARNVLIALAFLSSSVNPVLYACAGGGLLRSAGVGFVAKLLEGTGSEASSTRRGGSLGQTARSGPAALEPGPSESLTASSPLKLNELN

Row | Structure (SMILES) | number of TRAP(+) MNCs / osteoclast formation (rabbit osteoclasts) | LTB4-stimulated osteoclast formation [1, 2] | IC50 (LTB4 receptor) [nM] | number of TRAP(+) MNCs (rabbit osteoclasts; 10˜1000 nM, 48 hours, tissue culture dish, single treatment (FIG. 1, 2)) | LTB4-stimulated osteoclast formation ([1]; pre-treatment 18 hrs, then 1000 nM compound + 100 nM LTB4 for 48 hrs, dentin slices) | LTB4-stimulated osteoclast formation ([1]; simultaneous treatment: 1000 nM compound + 100 nM LTB4, 48 hrs, dentin slices) | Ki (LTB4 receptor) [nM]
1 | COc1ccc(/C=C/CCCCOc2ccc(C(=O)c3cccc(C(=O)O)c3)cc2CCC(=O)O)cc1 [LY223982] | did not change the number of osteoclasts | significantly abolished LTB4-stimulated osteoclast formation | 13 | – | – | – | –
2 | CCc1cc(-c2ccc(F)cc2)c(O)cc1OCCCOc1ccc2c(=O)c3cc(C(=O)O)ccc3oc2c1CCC(=O)O [LY292728] | no significant effect on osteoclast formation compared to the control culture | – | – | no significant effect on the number of osteoclasts | appeared to suppress the formation of osteoclasts | significantly abolished osteoclast formation increased by LTB4 | 0.5
3 | O=C(O)/C=C/c1nc(CSc2c(Cl)cccc2Cl)ccc1OCCc1ccccc1 [SB209247] | did not change the number of osteoclasts | significantly abolished LTB4-stimulated osteoclast formation | – | – | – | – | –
4 | CCCc1c(OCCCOc2cc(O)c(-c3ccc(F)cc3)cc2CC)cccc1Oc1ccccc1C(=O)O [LY293111] | did not change the number of osteoclasts | significantly abolished LTB4-stimulated osteoclast formation | – | – | – | – | 25
